Assay results as given in patent US20240108617A1, “AN INHALABLE DRY POWDER COMPOSITION FOR PULMONARY DISEASES” (GLENMARK SPECIALTY S.A., priority 2019, published 2024).
Blank lines part the entries; values can stand above or below the compound they belong to.

What was measured:
[1] = Compatibility with inhalation grades of lactose monohydrate; assay type: physicochemical; conditions: Respitose ML006, Respitose SV010, Lactohale 201, Lactohale 200, Inhalac 230, Inhalac 70
Source text: It was observed that compound (I) is compatible with different commercially available inhalation grades of lactose monohydrate including Respitose ML006, Respitose SV010, Lactohale 201, Lactohale 200, Inhalac 230, Inhalac 70. Lactose Monohydrate is selected as a diluent for compound (I) (micronized) with the particle size d90 of ≤5 microns.

IL-17 [2] = assay: Ex-vivo IL-17 inhibition from bronchoalveolar lavage (BAL) cells from COPD patients; assay type: cell-based, human; conditions: for IC50: stimulated BAL cells from COPD patients, read-out: IC50, IL-17 release
Description: The test compound was prepared by 10 mM stock of Compound (I) was prepared in 100% DMSO. The saline was prepared by 0.85 gm of NaCl weighted and dissolved in 100 mL distilled water and adjusted the pH 7.0 to pH 7.4. It was then filter sterilized.
Flexible fiber optic bronchoscopy was performed after valid consent and lignocaine nebulization. Patient was given 2 mg of IV midazolam and monitored under pulse oximetry and cardiac monitor. BAL fluid was collected with repeated aspirations of saline preferably from middle lobe.
BALF was passed through cell strainer to remove debris and mucus. BAL cells were isolated from BALf by centrifugation at 800 rpm for 10 min.
BAL cells were seeded at a density of 1×10^5 cells-2×10^5 cells/well in a 96 well plate coated with Anti-human CD3 antibody (10 μg/mL) and anti-human CD2 antibody (2 μg/mL). The plate was shaken gently and cells incubated for 5-10 minutes in an incubator with 37° C. and 5% CO2 to acclimatize. • 1. Cells were pre-incubated for 60 minutes at 37° C. with serial dilutions of Compound (I). This was followed by the addition of Anti-human CD28 antibody (2 μg/mL). • 2. Cells were incubated for 48-72 h in the incubator at 37° C. with 5% CO2. • 3. The plates were spun at 1200 rpm at 4° C. for 12 minutes, supernatant collected and used for IL17 estimation by ELISA.
(§1) Calculations: IL17 cytokine concentration in the supernatant was determined using linear regression from the standard graph and subsequently multiplied with respective dilution factors. Fold response (FR) was calculated as pg/ml of hIL17 in sample (treated) wells over pg/ml of hIL17 in Basal wells.
Percent Inhibition for each set treated with test compound was calculated by using the formula Percent Inhibition={100−(pg/mL of test compound/pg/mL of induced×100)} and IC50 values were calculated from concentration response curves by nonlinear regression analysis using GraphPad Prism software.

IL-17 [3] = assay: Ex-vivo IL-17 inhibition from peripheral blood (whole blood) from COPD patients; assay type: cell-based; conditions: Homo sapiens
Description: • 1. ˜8 mL whole blood was collected per patient. • 2. Human whole blood was diluted 1:1 with 0.85% NaCl. • 3. Diluted blood was loaded on a 96 well plate. Blood was pre-incubated for 60 minutes at 37° C. with serial dilutions of Compound (I). • 4. It was then transferred to 96 well plate coated with Anti-human CD3 antibody (final concentration—10 μg/mL). This was followed by the addition of Anti-human CD28 antibody (2 μg/mL). • 5. Cells were incubated for 48 h in the incubator at 37° C. with 5% CO2. The plates were spun at 1200 rpm at 4° C. for 12 minutes, supernatant collected and used for IL17 estimation by ELISA.
as §1
Percent Inhibition for each set treated with test compound was calculated by using the formula
Percent Inhibition={100−(pg/mL of test compound/pg/mL of induced×100)}
IC50 values were calculated from concentration response curves by nonlinear regression analysis using GraphPad Prism software.

[4] = Particle size distribution, Malvern Mastersizer 2000S, wet dispersion; assay type: physicochemical; conditions: PSD retested results
Description: The particle size distribution studies were performed using Malvern Mastersizer 2000S using wet dispersion method. A sample of about […] of compound (I) was transferred in a beaker, and 2-3 drops of nonidet P-40 and 4-5 drops of water were added to the sample in beaker, and 25-30 ml of water was added and sonicated for 180 seconds with continuous stirring, and the dispersion/solution of compound (I) was added in sample handling unit of Hydro 20000S. The particle size measurement was done using Malvern Mastersizer 2000S.

[5] = particle size data during initial development, listed as B
[6] = particle size data during intermediate development, listed as F
[7] = particle size data during initial development, listed as C
[8] = particle size data during initial development, listed as A
[9] = particle size data during intermediate development, listed as D
[10] = particle size data during intermediate development, listed as E

SMILES: CCc1ccccc1-c1nccnc1-c1ccc(NC(=O)Cc2ccc(C(F)(F)C(C)O)cc2)cc1 (stereo in doubt) [Compound (I), 2-{4-[(2S)-1,1-difluoro-2-hydroxypropyl]phenyl}-N-{4-[3-(2-ethylphenyl)pyrazine-2-yl]phenyl}acetamide]
- compatibility with commercially available inhalation grades of lactose monohydrate [1]: compatible
- inhibition of IL17 release (IL-17 [2]; BAL cells, at an ICmax concentration of 1-3 microns): > 70%
- IC50 (IL-17 [2]; Homo sapiens): 143 nM
- inhibition at 0.0001 µM (IL-17 [2]; Homo sapiens, COPD-BAL cells, 0.1 nM): 4.97%
- inhibition at 0.001 µM (IL-17 [2]; Homo sapiens, COPD-BAL cells, 1 nM): 2.39%
- inhibition at 0.003 µM (IL-17 [2]; Homo sapiens, COPD-BAL cells, 3 nM): 10.9%
- inhibition at 0.01 µM (IL-17 [2]; Homo sapiens, COPD-BAL cells, 10 nM): 13.9%
- inhibition at 0.03 µM (IL-17 [2]; Homo sapiens, COPD-BAL cells, 30 nM): 18.7%
- inhibition at 0.1 µM (IL-17 [2]; Homo sapiens, COPD-BAL cells, 100 nM): 41.4%
- inhibition at 0.3 µM (IL-17 [2]; Homo sapiens, COPD-BAL cells, 300 nM): 66.8%
- inhibition at 1 µM (IL-17 [2]; Homo sapiens, COPD-BAL cells, 1 μM): 71.1%
- inhibition at 3 µM (IL-17 [2]; Homo sapiens, COPD-BAL cells, 3 μM): 76.7%
- inhibition at 6 µM (IL-17 [2]; Homo sapiens, COPD-BAL cells, 6 μM): 78.8%
- inhibition at 10 µM (IL-17 [2]; Homo sapiens, COPD-BAL cells, 10 μM): 81.1%
- IC50 (IL-17 [2]): 143 nM
- inhibition at 0.0001 µM (IL-17 [3]; Whole Blood, 0.1 nM, read-out: IL17 A (% Inhibition)): 0.27%
- inhibition at 0.001 µM (IL-17 [3]; Whole Blood, 1 nM, read-out: IL17 A (% Inhibition)): 5.57%
- inhibition at 0.003 µM (IL-17 [3]; Whole Blood, 3 nM, read-out: IL17 A (% Inhibition)): 14.9%
- inhibition at 0.01 µM (IL-17 [3]; Whole Blood, 10 nM, read-out: IL17 A (% Inhibition)): 15.1%
- inhibition at 0.03 µM (IL-17 [3]; Whole Blood, 30 nM, read-out: IL17 A (% Inhibition)): 27.6%
- inhibition at 0.1 µM (IL-17 [3]; Whole Blood, 100 nM, read-out: IL17 A (% Inhibition)): 36.8%
- inhibition at 0.3 µM (IL-17 [3]; Whole Blood, 300 nM, read-out: IL17 A (% Inhibition)): 43.4%
- inhibition at 1 µM (IL-17 [3]; Whole Blood, 1 uM, read-out: IL17 A (% Inhibition)): 56.9%
- inhibition at 3 µM (IL-17 [3]; Whole Blood, 3 μM, read-out: IL17 A (% Inhibition)): 65%
- inhibition at 6 µM (IL-17 [3]; Whole Blood, 6 μM, read-out: IL17 A (% Inhibition)): 69.2%
- inhibition at 10 µM (IL-17 [3]; Whole Blood, 10 μM, read-out: IL17 A (% Inhibition)): 76.2%
- inhibition at 20 µM (IL-17 [3]; Whole Blood, 20 μM, read-out: IL17 A (% Inhibition)): 78.8%
- IC50 (IL-17 [3]; stimulated whole blood from COPD patients, read-out: IC50, IL17 release): 282 nM

- d10 [4, 5]: 0.106 μm
- d50 [4, 5]: 1.376 μm
- d90 [4, 5]: 3.278 μm
SMILES: CCc1ccccc1-c1nccnc1-c1ccc(NC(=O)Cc2ccc(C(F)(F)[C@@H](C)O)cc2)cc1 [API Batch B]

- d10 [4, 6]: 1.244 microns
- d50 [4, 6]: 2.383 microns
- d90 [4, 6]: 4.752 microns
SMILES: CCc1ccccc1-c1nccnc1-c1ccc(NC(=O)Cc2ccc(C(F)(F)[C@@H](C)O)cc2)cc1 [API Batch F]

- d10 [4, 7]: 1.128 μm
- d50 [4, 7]: 2.010 μm
- d90 [4, 7]: 3.783 μm
SMILES: CCc1ccccc1-c1nccnc1-c1ccc(NC(=O)Cc2ccc(C(F)(F)[C@@H](C)O)cc2)cc1 [API Batch C]

- d10 [4, 8]: 1.222 μm
- d50 [4, 8]: 2.064 μm
- d90 [4, 8]: 3.664 μm
SMILES: CCc1ccccc1-c1nccnc1-c1ccc(NC(=O)Cc2ccc(C(F)(F)[C@@H](C)O)cc2)cc1 [API Batch A]

- d10 [4, 9]: 0.110 microns
- d50 [4, 9]: 1.510 microns
- d90 [4, 9]: 3.638 microns
SMILES: CCc1ccccc1-c1nccnc1-c1ccc(NC(=O)Cc2ccc(C(F)(F)[C@@H](C)O)cc2)cc1 [API Batch D]

- d10 [4, 10]: 1.376 microns
- d50 [4, 10]: 2.591 microns
- d90 [4, 10]: 5.060 microns
SMILES: CCc1ccccc1-c1nccnc1-c1ccc(NC(=O)Cc2ccc(C(F)(F)[C@@H](C)O)cc2)cc1 [API Batch E]
